The values below come from patent publication US8084645B2, “4-phenylamino-benzaldoxime derivatives and uses thereof as mitogen-activated protein kinase kinase (MEK) inhibitors” (Chugai Seiyaku Kabushiki Kaisha, priority 2003, dated 2011).

Values after ≈ are worked out from the molar mass of the structure shown. Read-outs that look alike come from different tables or passages of the source. Where only a bound is given, the exact number is not on record here.

The nature of data set [1]: Determination of stability against mouse liver microsomes. The class given is in vitro ADME. The following applies: mouse liver microsomes 1 mg protein/mL, 2 mM NADPH, pH 7.4, 37 C; read-out: Stability against mouse liver microsome NADPH+ T1/2. As for the experimental part: The enzyme reaction was quenched with three volumes of acetonitrile, and the reaction mixture was centrifuged at 1,500 rpm for ten minutes to provide a supernatant as a sample to be measured. Stability against mouse liver microsomes was measured using HPLC/MS to determine the compounds in the sample.
For orientation: Liver microsomes are vesicles of endoplasmic reticulum, rich in cytochrome P450 enzymes.

Data set [2] is described as follows: Determination of stability against human liver microsomes. The class given is in vitro ADME. As to conditions: human liver microsomes 1 mg protein/mL, 2 mM NADPH, pH 7.4, 37 C; read-out: Stability against human liver microsome NADPH+ T1/2. As for the experimental part:
The enzyme reaction was quenched with three volumes of acetonitrile, and the reaction mixture was centrifuged at 1,500 rpm for ten minutes to provide a supernatant as a sample to be measured. Stability against human liver microsomes was measured using HPLC/MS to determine the compounds in the sample.

The target in another data set is MEK (Homo sapiens, UniProt Q02750). Nature of the data set: Determination of MEK inhibitory activities (Raf-1 kinase cascade assay, MBP phosphorylation, 33P-ATP).
A short description of data set [3]: Determination of water solubility (equilibrium stirring method). The class given is physicochemical. As to conditions: for solubility at 2 h: aqueous buffer, thermodynamic from solid, read-out: Water solubility (LySA PH 6.5). As for the experimental part:
The vessels were sealed, and the contents were sonicated at room temperature (20° C.) for ten minutes, and then stirred with a stirrer for two hours. After reaching solution equilibrium, the solution was separated with a membrane filter, and the solute concentration was determined using HPLC.

Data set [4] has as its system Human colon cancer cell line HT-29. Briefly: Determination of the activity of inhibiting cell proliferation (Cell Counting Kit-8). The class given is cell-based. As to conditions: HT-29, 96 h, HT29, 2,000 cells/well, incubated four days, read-out: Cell proliferation inhibitory activity (HT29) IC50. As for the experimental part: Human colon cancer cell line HT-29, obtained from American Type Culture Collection (VA, USA), and human non-small cell lung cancer cell line QG56, obtained from Immuno-Biological Laboratories Co., Ltd., were plated at 2,000 cells/well in a 96-well culture plate, and incubated for four days after addition of a MEK inhibitor of a given concentration.
A general note: Tetrazolium assays rely on reduction of a dye to a coloured formazan, in cell work by metabolically active cells.

[5] abbreviates: 50 mM phosphate buffer pH 6.5, room temperature (20 C).

MEK, sequence (Q02750 whole entry): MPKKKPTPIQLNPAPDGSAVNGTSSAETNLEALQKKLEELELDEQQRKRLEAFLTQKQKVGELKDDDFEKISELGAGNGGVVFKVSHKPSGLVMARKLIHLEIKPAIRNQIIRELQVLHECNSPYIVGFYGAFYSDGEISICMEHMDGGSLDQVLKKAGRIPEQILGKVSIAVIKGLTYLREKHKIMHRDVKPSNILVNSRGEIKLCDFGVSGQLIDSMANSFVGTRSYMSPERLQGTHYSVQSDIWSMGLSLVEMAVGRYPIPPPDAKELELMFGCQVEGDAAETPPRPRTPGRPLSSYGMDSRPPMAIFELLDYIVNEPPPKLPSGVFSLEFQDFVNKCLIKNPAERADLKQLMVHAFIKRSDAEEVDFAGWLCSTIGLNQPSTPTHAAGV
Text for MEK: The radioisotope used was [γ^33P]-ATP (Amersham Biosciences, K.K.).

As a reminder, the solubility is how much of the substance goes into solution per volume. As for `O=C(NOCCO)c1cc(/C=N/OCCCO)c(F)c(F)c1Nc1ccc(I)cc1F` [Compound 4, (E)-3,4-Difluoro-2-(2-fluoro-4-iodo-phenylamino)-N-(2-hydroxy-ethoxy)-5-[(3-hydroxy-propoxyimino)-methyl]-benzamide], the half-life in data set [1] and in data set [2] was more than 6 h each time. Moreover, the IC50 against MEK stood at 69 nM; in data set [4], 45 nM. Further, in data set [3] (phosphate buffer, 20 °C, at pH 6.08), the solubility at 2 h was found to be 3.8 µM (≈ 2.1 µg/mL).

As for `CC(O)CO/N=C/c1cc(C(=O)NOCCO)c(Nc2ccc(I)cc2F)c(F)c1F` (stereo not shown) [Compound 15, (E)-3,4-difluoro-2-(2-fluoro-4-iodo-phenylamino)-N-(2-hydroxy-ethoxy)-5-[(2-hydroxy-propoxyimino)-methyl]-benzamide], the half-life in data set [1] came out at 0.978 h; in data set [2] it was 2.67 h. In addition, the IC50 at MEK was 110 nM; in data set [4], 137 nM. Also, in data set [3] (setting [5]), the solubility at 2 h amounted to 8 µM (≈ 4.43 µg/mL).

Take `CN(C)C(=O)CCO/N=C/c1cc(C(=O)NOCCO)c(Nc2ccc(I)cc2F)c(F)c1F` [Compound 42, (E)-3,4-difluoro-2-(2-fluoro-4-iodo-phenylamino)-N-(2-hydroxy-ethoxy)-5-[dimethylcarbamoylethoxyimino-methyl]-benzamide]: the values for the half-life in data set [1] and in data set [2] were more than 6 h and 1.74 h, respectively. For the same compound, the IC50 on MEK stood at 56 nM; in data set [4], 91 nM. Further, the solubility at 2 h in data set [3] (setting [5]) is 29 µM (≈ 17.2 µg/mL).

Turning to `C#Cc1ccc(Nc2c(C(=O)NOCCO)cc(/C=N/OCC(O)CO)c(F)c2F)c(F)c1` (racemic) [Compound 8, (E)-dl-5-[(2,3-Dihydroxy-propoxyimino)-methyl]-2-(4-ethynyl-2-fluoro-phenylamino)-3,4-difluoro-N-(2-hydroxy-ethoxy)-benzamide], the half-life in data set [1] was more than 6 h; in data set [2], 1.24 h. The values for the IC50 (against MEK; in data set [4]) were 150 nM and 185 nM, respectively. Besides, the solubility at 2 h in data set [3] (phosphate buffer, 20 °C, at pH 6.06) stood at 1470 µM (≈ 687 µg/mL).

With `O=C(NOCCO)c1cc(/C=N/OCCN2CCCC2)c(F)c(F)c1Nc1ccc(I)cc1F` [Compound 21, (E)-3,4-difluoro-2-(2-fluoro-4-iodo-phenylamino)-N-(2-hydroxy-ethoxy)-5-[(2-pyrrolidin-1-yl-ethoxyimino)-methyl]-benzamide], the half-life in data set [1] and in data set [2] was more than 6 h each time. For the same compound, the results for the IC50 (against MEK; in data set [4]) were 802 nM and 651 nM, respectively. Besides, in data set [3] (setting [5]), the solubility at 2 h was 1480 µM (≈ 879 µg/mL).

Consider `CN(C)CCO/N=C/c1cc(C(=O)NOCCO)c(Nc2ccc(I)cc2F)c(F)c1F` [Compound 16, (E)-5-[(2-dimethylamino-ethoxyimino)-methyl]-3,4-difluoro-2-(2-fluoro-4-iodo-phenylamino)-N-(2-hydroxy-ethoxy)-benzamide], for which the half-life in data set [1] is 3.08 h; in data set [2] it was more than 6 h. Also, the IC50 at MEK came to 244 nM; in data set [4], 210 nM. In data set [3] (setting [5]), the solubility at 2 h was found to be 2400 µM (≈ 1360 µg/mL).

On to `C#Cc1ccc(Nc2c(C(=O)NOCCO)cc(/C=N/OCCC(=O)NC)c(F)c2F)c(F)c1` [Compound 41, (E)-2-(4-ethynyl-2-fluoro-phenylamino)-3,4-difluoro-N-(2-hydroxy-ethoxy)-5-[(2-methylcarbamoyl-ethoxyimino)-methyl]-benzamide], for which the half-life in data set [1] was 3.54 h; in data set [2], more than 6 h. Also, the IC50 was found to be 64.7 nM against MEK and 186 nM in data set [4]. Also, the solubility at 2 h in data set [3] (setting [5]) was determined as 347 µM (≈ 166 µg/mL).

Take `CS(=O)(=O)NCCO/N=C/c1cc(C(=O)NOCCO)c(Nc2ccc(I)cc2F)c(F)c1F` [Compound 47, (E)-3,4-difluoro-2-(2-fluoro-4-iodo-phenylamino)-N-(2-hydroxy-ethoxy)-5-[(2-methanesulfonylamino-ethoxyimino)-methyl]-benzamide]: the half-life in data set [1] and in data set [2] was more than 6 h throughout. The figures for the IC50 (on MEK; in data set [4]) were 209 nM and 138 nM, respectively. In addition, in data set [3] (setting [5]), the solubility at 2 h worked out at 11 µM (≈ 6.78 µg/mL).

For `NCCO/N=C/c1cc(C(=O)NOCCO)c(Nc2ccc(I)cc2F)c(F)c1F` [Compound 22, (E)-5-[(2-amino-ethoxyimino)-methyl]-3,4-difluoro-2-(2-fluoro-4-iodo-phenylamino)-N-(2-hydroxy-ethoxy)-benzamide], the half-life in data set [1] and in data set [2] was more than 6 h in each case. The IC50 was 75 nM against MEK and 36 nM in data set [4]. Further, the solubility at 2 h in data set [3] (setting [5]) is 146 µM (≈ 78.6 µg/mL).

With `CNC(=O)CO/N=C/c1cc(C(=O)NOCCO)c(Nc2ccc(I)cc2F)c(F)c1F` [Compound 43, (E)-3,4-difluoro-2-(2-fluoro-4-iodo-phenylamino)-N-(2-hydroxy-ethoxy)-5-[methylcarbamoylmethoxyimino-methyl]-benzamide], the half-life in data set [1] and in data set [2] was more than 6 h in each case. The IC50 against MEK came to 119 nM; in data set [4], 77 nM. Besides, the solubility at 2 h in data set [3] (setting [5]) stood at 57 µM (≈ 32.3 µg/mL).

Regarding `O=C(NOCCO)c1cc(/C=N\OCCO)c(F)c(F)c1Nc1ccc(I)cc1F` [Compound 49, (Z)-3,4-difluoro-2-(2-fluoro-4-iodo-phenylamino)-N-(2-hydroxy-ethoxy)-5-[(2-hydroxy-ethoxyimino)-methyl]-benzamide], the half-life in data set [1] and in data set [2] was more than 6 h each time. In addition, the IC50 amounted to 31 nM against MEK and 4.8 nM in data set [4]. Moreover, the “Water solubility (LySA PH 6.5)” value in data set [3] (setting [5]) amounted to 75 µM.

For `C#Cc1ccc(Nc2c(C(=O)NOCCO)cc(/C=N/OCCCO)c(F)c2F)c(F)c1` [Compound 5, (E)-2-(4-Ethynyl-2-fluoro-phenylamino)-3,4-Difluoro-N-(2-hydroxy-ethoxy)-5-[(3-hydroxy-propoxyimino)-methyl]-benzamide], the half-life was more than 6 h in data set [1] and 4.12 h in data set [2]. Also, the IC50 against MEK turned out to be 150 nM; in data set [4], 170 nM. For the same compound, the solubility at 2 h in data set [3] (phosphate buffer, 20 °C, at pH 6.87) came out at 426 µM (≈ 192 µg/mL).

Turning to `O=C(CO/N=C/c1cc(C(=O)NOCCO)c(Nc2ccc(I)cc2F)c(F)c1F)NCCO` [Compound 45, (E)-3,4-difluoro-2-(2-fluoro-4-iodo-phenylamino)-N-(2-hydroxy-ethoxy)-5-{[(2-hydroxyethylcarbamoyl)-methoxyimino]-methyl}-benzamide], the half-life in data set [1] is 2.15 h; in data set [2] it was more than 6 h. Besides, the IC50 at MEK turned out to be 267 nM; in data set [4], 196 nM. In addition, the solubility at 2 h in data set [3] (setting [5]) was found to be 73 µM (≈ 43.5 µg/mL).

For the compound `O=C(NOCCO)c1cc(/C=N/OCCN2CCNC2=O)c(F)c(F)c1Nc1ccc(I)cc1F` [Compound 27, (E)-3,4-difluoro-2-(2-fluoro-4-iodo-phenylamino)-N-(2-hydroxy-ethoxy)-5-{[2-(2-oxo-imidazolidin-1-yl)-ethoxyimino]-methyl}-benzamide], the half-life in data set [1] was more than 6 h; in data set [2], 2.41 h. In addition, the results for the IC50 (at MEK; in data set [4]) were 203 nM and 69 nM, respectively. Further, the solubility at 2 h in data set [3] (setting [5]) stood at 10 µM (≈ 6.07 µg/mL).

Turning to `O=C(NOCCO)c1cc(/C=N/OCCN2CCC(O)CC2)c(F)c(F)c1Nc1ccc(I)cc1F` [Compound 19, (E)-3,4-difluoro-2-(2-fluoro-4-iodo-phenylamino)-N-(2-hydroxy-ethoxy)-5-{[2-(4-hydroxy-piperidin-1-yl)-ethoxyimino]-methyl}-benzamide], the half-life in data set [1] and in data set [2] was more than 6 h throughout. Also, the IC50 against MEK was 693 nM; in data set [4] it was 750 nM. For the same compound, the solubility at 2 h in data set [3] (setting [5]) was determined as 2910 µM (≈ 1810 µg/mL).

`CC(=O)N(C)CCO/N=C/c1cc(C(=O)NOCCO)c(Nc2ccc(I)cc2F)c(F)c1F` [Compound 25, (E)-5-{[2-(acetyl-methyl-amino)-ethoxyimino]-methyl}-3,4-difluoro-2-(2-fluoro-4-iodo-phenylamino)-N-(2-hydroxyethoxy)-benzamide]: the half-life in data set [1] worked out at 3.3 h; in data set [2], 0.813 h. Further, the IC50 on MEK was determined as 30 nM; in data set [4] it was 44 nM. In data set [3] (setting [5]), the solubility at 2 h was 54 µM (≈ 32.1 µg/mL).

Consider `O=C(NOCCO)c1cc(/C=N/OCCN2CCC[C@H]2CO)c(F)c(F)c1Nc1ccc(I)cc1F` [Compound 20, (E)-3,4-difluoro-2-(2-fluoro-4-iodo-phenylamino)-N-(2-hydroxy-ethoxy)-5-{[2-((S)-hydroxymethyl-pyrrolidin-1-yl)-ethoxyimino]-methyl}-benzamide], for which the half-life in data set [1] and in data set [2] was more than 6 h each time. Besides, the IC50 at MEK came to 696 nM; in data set [4], 643 nM. Further, the solubility at 2 h in data set [3] (setting [5]) was found to be 1830 µM (≈ 1140 µg/mL).
